One data set deals with HepAD38 cells. Nature of the data set: Cell viability assay (AlamarBlue) in HepAD38 cells. The settings on record: HepAD38 cells with 0.3 μg/ml tetracycline, six days incubation, AlamarBlue. Background: Alamar Blue is a resazurin reagent that responds to reducing activity.
Another data set has as its target T1, HBV core protein (UniProt P03146).
T1 construct: fused on or other part: BODIPY-FL maleimide label on the C-terminal Cys150
In words: Biochemical capsid assembly assay (fluorescence quenching). Also noted: species or system hepatitis B virus. The essentials:
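Assembly-induced fluorescence quenching (477/525 nm) was measured 6 min after NaCl addition ([…]), against 2.5 M and 0 M NaCl controls. The labelled C150 core dimer (truncated at 149) at 1.0-2.0 μM in HEPES pH 7.5 was tested with eight half-log compound dilutions, top 100, 31.6 or 10 μM. EC50 was obtained by non-linear fit from triplicates run three times.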

The test system of another data set is HBV. Nature of the data set: Determination of HBV DNA from the supernatants of HepAD38 cells (anti-HBV activity). The settings on record: read-out: Cell Activity (EC50). The class given is cell-based, hepatitis B virus. The gist of the method: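 Supernatant viral DNA was measured by LightCycler qPCR, calibrated with pCH-9/3091 plasmid, 6 days after tetracycline-free HepAD38 cultures received half-log serial compound dilutions; untreated and tetracycline-treated cells served as controls; EC50 was fitted by non-linear regression.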

Data set [1] is described as follows: Cell viability assay (AlamarBlue) in HepAD38 cells. As to conditions: human.
The mark [2] stands for this setting: BODIPY-FL labelled core protein, 300 μM NaCl, read 6 min after start; read-out: Assembly Activity (IC50).
The mark [3] stands for this setting: HBV DNA in HepAD38 supernatant, day 6, qPCR.
The mark [4] stands for this setting: read-out: Assembly Activity (IC50); BODIPY-FL labelled core protein, 300 μM NaCl, read 6 min after start.
Where [5] appears, read: Hepatitis B virus, 144 h, HBV DNA in HepAD38 supernatant, day 6, qPCR.

Like-named read-outs stand apart in the source and are kept apart here. Where only a bound is given, the exact number is not on record here.

Experimental findings from patent US11236087B2, “Highly active pyrazolo-piperidine substituted indole-2-carboxamides active against the hepatitis B virus (HBV)” (AiCuris GmbH & Co. KG, priority 2017, dated 2022) are described below.

T1 sequence (P03146 whole entry, looked up, the tested form may be a part): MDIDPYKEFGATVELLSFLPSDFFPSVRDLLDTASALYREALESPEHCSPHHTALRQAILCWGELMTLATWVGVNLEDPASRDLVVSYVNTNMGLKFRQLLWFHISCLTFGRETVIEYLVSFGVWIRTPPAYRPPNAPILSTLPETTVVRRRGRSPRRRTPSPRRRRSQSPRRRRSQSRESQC

Broadly, the CC50 is the concentration giving 50% cytotoxicity. A lower CC50 goes with greater toxicity to the cells. What is called IC50 is the point on the concentration scale where inhibition reaches its midpoint. One may read the EC50 as the concentration needed to bring the measured effect to its halfway point. Molecule “5-(4-chloro-5-fluoro-1H-indole-2-carbonyl)-N-[1-(methoxymethyl)cyclopropyl]-N-methyl-1H,4H,5H,6H,7H-pyrazolo[4,3-c]pyridine-3-carboxamide [Example 268]” registered a cytotoxic concentration (CC50) with HepAD38 cells greater than 10 µM. Besides, the half-inhibitory concentration (IC50) on HBV core protein (setting [2]) was less than 5 µM. In the data set with HBV (setting [3]), the concentration for a half-maximal effect (EC50) is less than 1 µM.

“N-ethyl-5-(1H-indole-2-carbonyl)-N-(2-methoxyethyl)-1H,4H,5H,6H,7H-pyrazolo[4,3-c]pyridine-3-carboxamide [Example 294]”: in the data set on HepAD38 cells, the CC50 is greater than 10 µM. Besides, the IC50 on HBV core protein (setting [2]) was in the range of 5 to 10 µM. Besides, the EC50 in the data set with HBV (setting [3]) is less than 1 µM.

For “5-[4-(1,1-difluoroethyl)-1H-indole-2-carbonyl]-N-[1-(methoxymethyl)cyclopropyl]-N-methyl-1H,4H,5H,6H,7H-pyrazolo[4,3-c]pyridine-3-carboxamide [Example 301]”, in the data set with HepAD38 cells, the CC50 was greater than 10 µM. Moreover, the IC50 at HBV core protein (setting [2]) was less than 5 µM. In addition, the EC50 in the data set with HBV (setting [3]) is less than 1 µM.

Molecule “N-[1-(methoxymethyl)cyclopropyl]-N-methyl-5-(4-methyl-1H-indole-2-carbonyl)-1H,4H,5H,6H,7H-pyrazolo[4,3-c]pyridine-3-carboxamide [Example 260]” registered a CC50 in the data set with HepAD38 cells greater than 10 µM. Moreover, on HBV core protein (setting [2]), the IC50 was less than 5 µM. Moreover, the EC50 in the data set with HBV (setting [3]) is less than 1 µM.

Molecule “3-{1-[5-(1H-indole-2-carbonyl)-2H,4H,5H,6H,7H-pyrazolo[4,3-c]pyridin-3-yl]-N-methylformamido}-N-methanesulfonylpropanamide [Example 244]” yielded a 50% cytotoxic concentration (CC50) in the data set with HepAD38 cells greater than 10 µM. Moreover, the concentration for a half-maximal effect (EC50) with HBV (setting [3]) is less than 100 µM.

Molecule “tert-butyl N-(2-{1-[5-(1H-indole-2-carbonyl)-2H,4H,5H,6H,7H-pyrazolo[4,3-c]pyridin-3-yl]-N-methylformamido}ethyl)carbamate [Example 281]” yielded a half-maximal cytotoxic concentration (CC50) in the data set with HepAD38 cells greater than 10 µM. For the same molecule, the half-inhibitory concentration (IC50) on HBV core protein (setting [2]) is less than 100 µM. In addition, the EC50 with HBV (setting [3]) was 1 to 25 µM.

With “N-(2,3-dihydroxypropyl)-5-(1H-indole-2-carbonyl)-N-methyl-2H,4H,5H,6H,7H-pyrazolo[4,3-c]pyridine-3-carboxamide [Example 253]”, the CC50 with HepAD38 cells was greater than 10 µM. For the same molecule, at HBV core protein (setting [2]), the IC50 lay in the range of 5 to 10 µM. The EC50 in the data set with HBV (setting [3]) fell in the range of 1 to 25 µM.

In data set [1], `Cc1cccc2[nH]c(C(=O)N3CCc4[nH]nc(C(=O)N(C)OCCOP(=O)(N[C@@H](C)C(=O)OC(C)C)Oc5ccccc5)c4C3)cc12` (stereo partly drawn) [Example 55, propan-2-yl (2S)-2-({[2-({N-methyl-1-[5-(4-methyl-1H-indole-2-carbonyl)-1H,4H,5H,6H,7H-pyrazolo[4,3-c]pyridin-3-yl]formamido}oxy)ethoxy](phenoxy)phosphoryl}amino)propanoate] registered a CC50 at 6 days greater than 32 µM. On HBV core protein (setting [4]), the half-maximal inhibitory concentration (IC50) is less than 5 µM. Moreover, the concentration for a half-maximal effect (EC50) in the data set on HBV (Hepatitis B virus, HePAD38, 144 h) is less than 1 µM.

Turning to `COCC1(N(C)C(=O)c2n[nH]c3c2CN(C(=O)c2cc4cc(F)c(Cl)cc4[nH]2)CC3)CC1` [Example 265, 5-(6-chloro-5-fluoro-1H-indole-2-carbonyl)-N-[1-(methoxymethyl)cyclopropyl]-N-methyl-1H,4H,5H,6H,7H-pyrazolo[4,3-c]pyridine-3-carboxamide], the half-maximal cytotoxic concentration (CC50) at 6 days in data set [1] is greater than 10 µM. Also, the half-inhibitory concentration (IC50) on HBV core protein (setting [4]) was less than 5 µM. The EC50 in the data set with HBV (setting [5]) was less than 1 µM.

With `O=C(c1cc2c(Cl)cc(F)cc2[nH]1)N1CCc2[nH]ncc2C1` [Example 142, 4-chloro-6-fluoro-2-{1H,4H,5H,6H,7H-pyrazolo[4,3-c]pyridine-5-carbonyl}-1H-indole], in data set [1], the half-maximal cytotoxic concentration (CC50) at 6 days was greater than 100 µM. Besides, at HBV core protein (setting [4]), the concentration for half-maximal inhibition (IC50) was less than 5 µM. Besides, the EC50 with HBV (setting [5]) is less than 1 µM.

Molecule `COCCNC(=O)c1n[nH]c2c1CN(C(=O)c1cc3ccccc3[nH]1)CC2` [Example 104, 5-(1H-indole-2-carbonyl)-N-(2-methoxyethyl)-1H,4H,5H,6H,7H-pyrazolo[4,3-c]pyridine-3-carboxamide] returned a CC50 at 6 days in data set [1] greater than 100 µM. Further, the 50% inhibitory concentration (IC50) on HBV core protein (setting [4]) is less than 100 µM. The EC50 with HBV (setting [5]) fell in the range of 1 to 25 µM.

As to `CC(C)OCC1(N(C)C(=O)c2n[nH]c3c2CN(C(=O)c2cc4ccccc4[nH]2)CC3)CC1` [Example 208, 5-(1H-indole-2-carbonyl)-N-methyl-N-{1-[(propan-2-yloxy)methyl]cyclopropyl}-1H,4H,5H,6H,7H-pyrazolo[4,3-c]pyridine-3-carboxamide], the CC50 at 6 days in data set [1] is greater than 10 µM. Moreover, the half-maximal inhibitory concentration (IC50) on HBV core protein (setting [4]) is less than 5 µM. Moreover, the EC50 in the data set with HBV (setting [5]) is less than 1 µM.

`O=C(c1cc2ccccc2[nH]1)N1CCc2[nH]nc(C(=O)N3CCSCC3)c2C1` [Example 159, 2-[3-(thiomorpholine-4-carbonyl)-1H,4H,5H,6H,7H-pyrazolo[4,3-c]pyridine-5-carbonyl]-1H-indole] had a CC50 at 6 days in data set [1] greater than 10 µM. Further, the 50% inhibitory concentration (IC50) at HBV core protein (setting [4]) was less than 5 µM. For the same molecule, the half-maximal effective concentration (EC50) in the data set with HBV (setting [5]) was less than 1 µM.
